This passage reports Ki and ED50 results from US5434186A, “Carboxylic acid leukotriene B4 antagonists” (Hoffmann-La Roche Inc., priority 1993, dated 1995).

One may read the Ki as a dissociation constant, usually derived from enzyme kinetics or from competition with a known ligand. A high value points to weaker binding.

In one experiment the target is T1, LTB4 Receptor (Homo sapiens, UniProt Q15722).
T1 construct: Isolated human neutrophils in Gey's salt solution; endogenous in cells; host or cells: human neutrophils isolated from blood (90-95% neutrophils)
In words: LTB4 Receptor Binding Assay (inhibition of 3H-LTB4 binding, human neutrophils). The conditions noted are these: 0.5 nM 3H-LTB4, 45 minutes on ice, isolated human neutrophils. As to the method: Binding assays can be performed in microtiter wells. Isolated human neutrophils in Gey's salt solution are incubated on ice for 45 minutes with 0.5 nM ^3 H-LTB4 in the presence or absence of test compounds. Assays are terminated by adding 12 ml ice cold 50 mM Tris (pH 7.4) followed by rapid filtration under vacuum through GF/C filters. Radioactivity is determined by scintillation counting. Non specific binding is defined as the binding not displaced by 100 fold excess of unlabelled LTB4. Specific binding is defined as the difference between total binding and non-specific binding. Non linear analysis of the binding data is performed using LIGAND (Munson and Rodbard, 1980). Ki (Inhibition Constant) values were determined using the Cheng-Prusoff relationship (Cheng and Prusoff, 1973).
Human neutrophils are prepared from citrated or heparinized blood. The blood was diluted 1:1 with Hank's balanced salt solution (HBSS) minus calcium and magnesium and underlayed with 10 ml lymphocyte separation medium (Organon Teknika), followed by centrifugation at 500× g for 30 min., at room temperature. Supernatants are removed down to the red blood cell pellet. HBSS minus calcium and magnesium are added to give 25 ml. To this are added 25 ml 6% dextran in 0.85% NaCl. Samples are mixed and allowed to stand 20 min at room temperature. Supernatants are removed and centrifuged at 500× g for 5 min at 4° C. Pellets are resuspended with 20 ml 0.2% saline for 20 sec followed by the addition of 20 ml 1.6% saline. Samples are centrifuged at 500× g for 5 min at 4° C. The lysis is repeated and the cells (90-95% neutrophils) are resuspended at 2× 10^6 cell/ml in GEY's salt solution.

The subject of experiment [1] is LTB4 -induced bronchoconstriction. In words: Guinea Pig Bronchoconstriction In Vivo (LTB4-induced). On the set-up: species or system guinea pig (Hartley strain). The conditions noted are these: Cavia porcellus, iv, i.v. five minutes prior to LTB4 (1 μg/kg i.v.), read-out: ID50 (mg/kg), i.v., LTB4-induced bronchoconstriction. As to the method: Male guinea pigs (Hartley strain) weighing 300 to 500 g are anesthetized with urethane (2 g/kg) intraperitoneally and a polyethylene cannula is inserted into the jugular vein for drug administration. Tracheal pressure is recorded from a cannula inserted into the trachea and connected to a Gould P23ID pressure transducer. After surgical preparation of the animals, a period of time is allowed for pulmonary functions to stabilize. The test compound is administered intravenously five minutes prior to leukotriene B4 administration according to the following protocol: Animals are paralyzed with succinylcholine (1.2 mg/kg i.v.) and mechanically respirated (Harvard rodent respirator) at 40 breaths/minute and 2.5 cc tidal volume. Propranolol (0.1 mg/kg) is then administered intravenously one minute prior to leukotriene B4 administration. Animals are then challenged with an intermediate constrictory dose of leukotriene B4 (1 μg/kg) delivered intravenously.
The change (cm H2 O) between pre and peak ventilatory pressure readings is averaged for five control and five drug treated animals. The percent inhibition is calculated from the formula:
((Control-Drug Treated)/Control)×100
When representative compounds of formula I of the invention were utilized as the test compounds the following results were obtained: […]

T1 sequence (Q15722 whole entry): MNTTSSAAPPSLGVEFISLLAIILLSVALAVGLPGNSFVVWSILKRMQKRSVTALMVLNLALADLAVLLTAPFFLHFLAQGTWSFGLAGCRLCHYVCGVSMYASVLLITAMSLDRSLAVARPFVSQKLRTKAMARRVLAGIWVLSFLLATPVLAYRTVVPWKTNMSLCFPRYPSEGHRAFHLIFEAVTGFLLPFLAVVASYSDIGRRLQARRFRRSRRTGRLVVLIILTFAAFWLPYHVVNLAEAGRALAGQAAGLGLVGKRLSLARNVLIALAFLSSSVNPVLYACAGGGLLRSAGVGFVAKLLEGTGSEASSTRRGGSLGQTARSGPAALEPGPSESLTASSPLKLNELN

`CCCc1c(OCCCCCCCCOc2ccc(C(=O)c3cccc(C(=O)O)c3)cc2CCC(=O)O)ccc2c1OCCC2=O` [Example 83, 5-[(3-Carboxyphenyl)carbonyl]-2-[8-[(3,4-dihydro-4-oxo-8-propyl-2H-1-benzopyran-7-yl)oxy]octyloxy]benzenepropanoic Acid] displayed a Ki at LTB4 Receptor of 3 nM. For `CCCc1c(OCCCCCOc2ccc3cc(OCC(=O)O)ccc3c2CCC(=O)O)ccc2c1OCCC2=O` [Example 231, 6-(Carboxymethoxy)-2-[[5-[(3,4-dihydro-4-oxo-8-propyl-2H-1-benzopyran-7-yl)oxy]pentyl]oxy]-1-naphthalenepropanoic Acid], on LTB4 Receptor, the Ki stood at 0.8 nM. In addition, in experiment [1], the ED50 was 1.36 mg/kg. In turn, `CCCc1ccc2c(c1OCCCCCOc1ccccc1CCC(=O)O)CCCC2=O` [Example 79, 2-[5-[(5-Oxo-2-propyl-5,6,7,8-tetrahydro-1-naphthalenyl)oxy]pentyloxy]benzenepropanoic Acid] came in with a Ki at LTB4 Receptor of 1500 nM. `CCCc1c(OCCCCCOc2ccc(C(=O)CCC(=O)O)cc2CCC(=O)O)ccc2c1OCCC2=O` [Example 89, 3-(2-Carboxyethyl)-4-[5-[(3,4-dihydro-4-oxo-8-propyl-2H-1-benzopyran-7-yl)oxy]pentyloxy]-γ-oxobenzenebutanoic Acid] had a Ki at LTB4 Receptor of 4 nM. In addition, the ED50 in experiment [1] is 4.33 mg/kg. With `CCCc1c(OCCCCCCc2cccc(OCCCC(=O)O)c2CCC(=O)O)ccc2c1OCCC2=O` [Example 205, 2-(3-Carboxypropoxy)-6-[6-[(3,4-dihydro-4-oxo-8-propyl-2H-1-benzopyran-7-yl)oxy]hexyl]benzenepropanoic Acid], the ED50 in experiment [1] stood at 0.26 mg/kg.

In turn, `CCCc1c(OCCCCCOc2ccc3nc(CCC(=O)O)ccc3c2CCC(=O)O)ccc2c1OCCC2=O` [Example 238, 6-[[5-[(3,4-Dihydro-4-oxo-8-propyl-2H-1-benzopyran-7-yl)oxy]pentyl]oxy]-2,5-quinolinedipropanoic Acid] gave an inhibitory constant (Ki) at LTB4 Receptor of 2 nM. In experiment [1], the ED50 was 1.24 mg/kg. The like results for `CCCc1c(OCCCCCCc2cccc(OCCCCC(=O)N(C)C)c2CCC(=O)N(C)C)ccc2c1OCCC2=O` [Example 196, 2-[6-[(3,4-Dihydro-4-oxo-8-propyl-2H-1-benzopyran-7-yl)oxy]hexyl]-6-[[5-(dimethylamino)-5-oxopentyl]oxy]-N,N-dimethylbenzenepropanamide] were, in that order, 200 nM and 0.62 mg/kg. `CCCc1c(OCCCCCOc2cccc3cc(C(=O)O)oc23)ccc2c1OCCC2=O` [Example 19, 7-[5-[(3,4-Dihydro-4-oxo-8-propyl-2H-1-benzopyran-7-yl)oxy]pentyloxy]-2-benzofurancarboxylic Acid] came in with a Ki on LTB4 Receptor of 250 nM. As for `CCCc1c(OCCCCCOc2ccccc2CCCCC(=O)O)ccc2c1OCCC2=O` [Example 147, 2-[5-[(3,4-Dihydro-4-oxo-8-propyl-2H-1-benzopyran-7-yl)oxy]pentyloxy]benzenepentanoic Acid], at LTB4 Receptor, the Ki came out at 200 nM. Moreover, the ED50 in experiment [1] turned out to be 1.18 mg/kg.

`CCCc1c(OCCCCCOc2ccc(OCCCC(=O)O)cc2CCC(=O)O)ccc2c1OCCC2=O` [Example 47, 5-(3-Carboxypropoxy)-2-[5-[(3,4-dihydro-4-oxo-8-propyl-2H-1-benzopyran-7-yl)oxy]pentyloxy]benzenepropanoic Acid]: the Ki at LTB4 Receptor was found to be 3 nM. Moreover, the ED50 in experiment [1] stood at 3.66 mg/kg. `CCCc1c(OCCCCCCc2cccc(OCCCCCC(=O)O)c2CCC(=O)O)ccc2c1CCCC2=O` [Example 206, 2-[(5-Carboxypentyl)oxy]-6-[6-[(5,6,7,8-tetrahydro-5-oxo-1-propyl-2-naphthalenyl)oxy]hexyl]benzenepropanoic Acid]: the ED50 in experiment [1] was 0.12 mg/kg. Same read-out and setting: with `CCCc1c(OCCCCCCc2cccc(OCCCCCCCCC(=O)O)c2CCC(=O)O)ccc2c1OCCC2=O` [Example 188, 2-[(8-Carboxyoctyl)oxy]-6-[6-[(3,4-dihydro-4-oxo-8-propyl-2H-1-benzopyran-7-yl)oxy]hexyl]benzenepropanoic Acid] the figure was 0.9 mg/kg. Consider `CCCc1c(OCCCCCc2ccccc2CCC(=O)O)ccc2c1OCCC2=O` [Example 8, 2-[5-[(3,4-Dihydro-4-oxo-8-propyl-2H-1-benzopyran-7-yl)oxy]pentyl]benzenepropanoic Acid], for which the affinity at LTB4 Receptor corresponds to a Ki of 63 nM. On the same count and under the same terms, then `CCCc1c(OCCCCCOc2ccccc2/C=C/C(=O)O)ccc2c1OCCC2=O` [Example 109, (E)-3-[2-[5-[(3,4-Dihydro-4-oxo-8-propyl-2H-1-benzopyran-7-yl)oxy]pentyloxy]phenyl]-2-propenoic Acid], with 80 nM; and `CCCc1c(OCCCCCOc2ccc(C(=O)c3ccccc3CC(=O)O)cc2CCC(=O)O)ccc2c1OCCC2=O` [Example 95, 5-[[2-(Carboxymethyl)phenyl]carbonyl]-2-[5-[(3,4-dihydro-4-oxo-8-propyl-2H-1-benzopyran-7-yl)oxy]pentyloxy]benzenepropanoic Acid], with 8 nM; and `CCCc1c(CCCCCCOc2ccccc2CCC(=O)O)ccc2c1OCCC2=O` [Example 106, 2-[6-(3,4-Dihydro-4-oxo-8-propyl-2H-1-benzopyran-7-yl)hexyloxy]benzenepropanoic Acid], with 20 nM.

Regarding `CCCc1c(OCCCCCOc2ccccc2CCC(=O)O)ccc2c1CCCC2=O` [Example 10, 2-[[5-(5-Oxo-1-propyl-5,6,7,8-tetrahydro-2-naphthalenyl)oxy]pentyloxy]benzenepropanoic Acid], the ED50 in experiment [1] came to 2.08 mg/kg. As to `CCCc1c(C#CCCCCOc2ccccc2CCC(=O)O)ccc2c1OCCC2=O` [Example 107, 2-[6-(3,4-Dihydro-4-oxo-8-propyl-2H-1-benzopyran-7-yl)-5-hexynyloxy]benzenepropanoic Acid], affinity at LTB4 Receptor was put at a Ki of 50 nM. On the same count and under the same terms, with `CCCc1c(OCCCCCOc2ccccc2CCC(=O)O)ccc2c1OCC2=O` [Example 40, 2-[5-[(2,3-Dihydro-3-oxo-7-propylbenzofuran-6-yl)oxy]pentyloxy]benzenepropanoic Acid] the figure was 75 nM; with `CCCc1c(OCCCCCOc2ccc(C(=O)Cc3ccccc3C(=O)O)cc2CCC(=O)O)ccc2c1OCCC2=O` [Example 92, 5-[2-(2-Carboxyphenyl)-1-oxoethyl]-2-[5-[(3,4-dihydro-4-oxo-8-propyl-2H-1-benzopyran-7-yl)oxy]pentyloxy]benzenepropanoic Acid], 5 nM. Still for that read-out and setting: then `CCCc1c(OCCCCCCc2ccc(OCCCC(=O)O)cc2/C=C/C(=O)O)ccc2c1OCCC2=O` [Example 114, (E)-4-[3-(2-carboxyethenyl)-4-[6-[(3,4-dihydro-4-oxo-8-propyl-2H-1-benzopyran-7-yl)oxy]hexyl]phenoxy]butanoic acid], with 1 nM. For `CCCc1c(OCCCCCCc2cccc(OCCCCCCCC(=O)O)c2CCC(=O)O)ccc2c1OCCC2=O` [Example 184, 2-[(7-Carboxyheptyl)oxy]-6-[6-[(3,4-dihydro-4-oxo-8-propyl-2H-1-benzopyran-7-yl)oxy]hexyl]benzenepropanoic Acid], in experiment [1], the ED50 came out at 0.17 mg/kg. At LTB4 Receptor, `CCCc1c(OCCCC/C=C/c2ccc(C(=O)c3cccc(C(=O)O)c3)cc2CCC(=O)O)ccc2c1OCCC2=O` [Example 101, (E)-5-[(3-Carboxyphenyl)carbonyl]-2-[6-[(3,4-dihydro-4-oxo-8-propyl-2H-1-benzopyran-7-yl)oxy]-1-hexenyl]benzenepropanoic Acid] returned a Ki of 4 nM. Same read-out and setting: with `CCCc1c(OCCCCCCCOc2ccc(C(=O)c3cccc(C(=O)O)c3)cc2CCC(=O)O)ccc2c1OCCC2=O` [Example 81, 5-[(3-Carboxyphenyl)carbonyl]-2-[7-[(3,4-dihydro-4-oxo-8-propyl-2H-1-benzopyran-7-yl)oxy]heptyloxy]benzenepropanoic Acid] the figure was 3 nM; with `CCCc1c(OCCCCCOc2ccc3oc(C(=O)O)cc3c2)ccc2c1OCCC2=O` [Example 26, 5-[5-[(3,4-Dihydro-4-oxo-8-propyl-2H-1-benzopyran-7-yl)oxy]pentyloxy]-2-benzofurancarboxylic Acid], 270 nM.
